In patent US10160986B2, “Chemoenzymatic synthesis of heparin and heparan sulfate analogs” (The Regents of the University of California, priority 2011, dated 2018):

Columns and labels:
[1] = tested on: T1, MBP-KfiA-His6 (Escherichia coli); experiment: GlcNAcT donor substrate specificity of MBP-KfiA-His6 (Example 12); assay type: biochemical, E. coli; conditions: acceptor GlcAβ2AA 1 mM, UDP-sugar 1 mM, MnCl2 10 mM, KfiA 2.8 μg μl^−1, 24 h, 37° C.
T1 construct: made in house; host or cells: E. coli BL21(DE3) co-expressing chaperone plasmid pGro7
Procedure: (§1) PmHS2, KfiA, and related fusion proteins were expressed, purified, and characterized as described in Example 1. Reactions with UDP-sugars were carried out in duplicate at 37° C. in MES (100 mM, pH 6.5) containing UDP-GlcNAc or one of its derivatives (1 mM), GlcAβ2AA (1 mM), MnCl2 (10 mM) and KfiA (2.8 μg μl^−1) or PmHS2 (1.1 μg μl^−1) for 24 h. The reaction mixtures were stopped by adding ice-cold 10% (v/v) acetonitrile to make 100-fold dilutions and the mixtures were analyzed by HPLC as described for the pH profile.
(§2) Substrate specificity of the GlcNAcT activities of MBP-KfiA-his6 and his6-PmHS2. […] The reactions were easily analyzed by high performance liquid chromatography (HPLC) equipped with a fluorescence detector using an excitation wavelength of 315 nm and an emission wavelength of 400 nm to determine the ratio of the fluorescent disaccharide product formed and the fluorescent GlcAβ2AA acceptor.

[2] = tested on: His6-PmHS2; experiment: GlcNAcT donor substrate specificity of His6-PmHS2 (Example 12); assay type: biochemical, Pasteurella multocida; conditions: acceptor GlcAβ2AA 1 mM, UDP-sugar 1 mM, MnCl2 10 mM, PmHS2 1.1 μg μl^−1, 24 h, 37° C.
Procedure: as §1, §2

[3] = tested on: PmHS2; experiment: Small-scale PmHS2 donor substrate test by TLC; assay type: biochemical, Pasteurella multocida; conditions: GlcAβ2AAMe 10 mM, donor 15 mM, MgCl2 10 mM, PmHS2 0.5 mg/mL, pH 7.5, 37° C., 12 hr
Procedure: Prior to applying the one-pot three-enzyme system shown in FIG. 16 to the preparative-scale synthesis of the disaccharides, UDP-GlcNAc and derivatives F17-1-F17-12 were tested as donor substrates for PmHS2 in small-scale reaction containing Tris-HCl buffer (100 mM, pH 7.5), GlcAβ2AAMe (10 mM), UDP-GlcNAc or a derivative (15 mM), MgCl2 (10 mM), and PmHS2 (0.5 mg/mL). The reactions were carried out at 37° C. for 12 hr and analyzed by thin layer chromatography (TLC).

Structure (SMILES)	donor substrate for MBP-KfiA-His6 [1]	donor substrate for the α1-4GlcNAcT activity of His6-PmHS2 [2]	donor substrate for PmHS2 [3]
O=C(Cc1ccccc1)NC1C(OP(=O)(O)OP(=O)(O)OCC2OC(n3ccc(=O)[nH]c3=O)C(O)C2O)OC(CO)C(O)C1O [Compound 33-5, Uridine 5′-diphospho-2-phenylacetamido-2-deoxy-α-D-glucopyranoside]	not for MBPKfiA-His6	tolerable donor substrates for His6-PmHS2	
O=C(Cc1ccc(-c2ccccc2)cc1)N[C@H]1[C@@H](OP(=O)(O)OP(=O)(O)OC[C@H]2O[C@@H](n3ccc(=O)[nH]c3=O)[C@H](O)[C@@H]2O)O[C@H](CO)[C@@H](O)[C@@H]1O [Compound 33-6, Uridine 5′-diphospho-2-(1,1′-biphenyl-4-yl)acetamido-2-deoxy-α-D-glucopyranoside]	not suitable donor substrates	not suitable donor substrates	
CC(=O)NC1C(OP(=O)(O)OP(=O)(O)OCC2OC(n3ccc(=O)[nH]c3=O)C(O)C2O)OC(CNC(=O)Cc2ccccc2)C(O)C1O [Compound 33-14, Uridine 5′-diphospho-2-acetamido-6-phenylacetamido-2,6-dideoxy-α-D-glucopyranoside]	not suitable donor substrates	not suitable donor substrates	
CC(=O)NC1C(OP(=O)(O)OP(=O)(O)OCC2OC(n3ccc(=O)[nH]c3=O)C(O)C2O)OC(CNC(=O)Cc2ccc(-c3ccccc3)cc2)C(O)C1O [Compound 33-15, Uridine 5′-diphospho-2-acetamido-6-(1,1′-biphenyl-4-yl)-acetamido-2,6-dideoxy-α-D-glucopyranoside]	not suitable donor substrates	not suitable donor substrates	
CC(=O)N[C@H]1[C@@H](OP(=O)(O)OP(=O)(O)OC[C@H]2O[C@@H](n3ccc(=O)[nH]c3=O)[C@H](O)[C@@H]2O)O[C@H](CO)[C@H](O)[C@@H]1O [Compound 33-18, uridine 5′-diphospho-2-acetamido-2-deoxy-α-D-glacopyranoside]	not for MBPKfiA-His6	tolerable donor substrates for His6-PmHS2	
CC(=O)N[C@@H]1[C@@H](OP(=O)(O)OP(=O)(O)OC[C@H]2O[C@@H](n3ccc(=O)[nH]c3=O)[C@H](O)[C@@H]2O)O[C@H](CO)[C@@H](O)[C@@H]1O [Compound 33-20, Uridine 5′-diphospho-2-acetamido-2-deoxy-α-D-mannopyranoside]	not tolerable substrate	not tolerable substrate	
[N-]=[N+]=N[C@@H]1[C@@H](OP(=O)(O)OP(=O)(O)OC[C@H]2O[C@@H](n3ccc(=O)[nH]c3=O)[C@H](O)[C@@H]2O)O[C@H](CO)[C@@H](O)[C@@H]1O [Compound 33-21, Uridine 5′-diphospho-2-azido-2-deoxy-α-D-mannopyranoside]	not tolerable substrate	not tolerable substrate	
O=c1ccn(C2OC(COP(=O)(O)OP(=O)(O)OC3OC(CO)C(O)C(O)C3F)C(O)C2O)c(=O)[nH]1 [Compound 33-23, Uridine 5′-diphospho-2-fluoro-2-deoxy-α-D-mannopyranoside]	not tolerable substrate	not tolerable substrate	
NC1C(OP(=O)(O)OP(=O)(O)OCC2OC(n3ccc(=O)[nH]c3=O)C(O)C2O)OC(CO)C(O)C1O [Compound F17-5, Uridine 5′-diphospho-2-amino-2-deoxy-α-D-glucopyranoside]	not acceptable donor substrates	not acceptable donor substrates	did not serve as donor substrates
[N-]=[N+]=N[C@H]1[C@@H](OP(=O)(O)OP(=O)(O)OC[C@H]2O[C@@H](n3ccc(=O)[nH]c3=O)[C@H](O)[C@@H]2O)O[C@H](CO)[C@@H](O)[C@@H]1O [Compound F17-6, Uridine 5′-diphospho-2-azido-2-deoxy-α-D-glucopyranoside]	not acceptable donor substrates	not acceptable donor substrates	did not serve as donor substrates
O=c1ccn([C@@H]2O[C@H](COP(=O)(O)OP(=O)(O)O[C@H]3O[C@H](CO)[C@@H](O)[C@H](O)[C@H]3NS(=O)(=O)O)[C@@H](O)[C@H]2O)c(=O)[nH]1 [Compound F17-7, Uridine 5′-diphospho-2-sulfoamino-2-deoxy-α-D-glucopyranoside]		block the activities of both	did not serve as donor substrates
CC(=O)N[C@H]1[C@@H](OP(=O)(O)OP(=O)(O)OC[C@H]2O[C@@H](n3ccc(=O)[nH]c3=O)[C@H](O)[C@@H]2O)O[C@H](CNC(=O)CO)[C@@H](O)[C@@H]1O [Compound F17-9, Uridine 5′-diphospho-2-acetamido-6-hydroxyacetamido-2,6-dideoxy-α-D-glucopyranoside]	not for MBPKfiA-His6	tolerable donor substrates for His6-PmHS2	tolerable donor substrates
CC(=O)NC1C(OP(=O)(O)OP(=O)(O)OCC2OC(n3ccc(=O)[nH]c3=O)C(O)C2O)OC(CN)C(O)C1O [Compound F17-10, Uridine 5′-diphospho-2-acetamido-6-amino-2,6-dideoxy-α-D-glucopyranoside]	not for MBPKfiA-His6	tolerable donor substrates for His6-PmHS2	did not serve as donor substrates
CC(=O)NC1C(OP(=O)(O)OP(=O)(O)OCC2OC(n3ccc(=O)[nH]c3=O)C(O)C2O)OC(CNC(=O)CN=[N+]=[N-])C(O)C1O [Compound F17-11, Uridine 5′-diphospho-2-acetamido-6-azidoacetamido-2,6-dideoxy-α-D-glucopyranoside]	not for MBPKfiA-His6	tolerable donor substrates for His6-PmHS2	did not serve as donor substrates
CC(=O)N[C@H]1[C@@H](OP(=O)(O)OP(=O)(O)OC[C@H]2O[C@@H](n3ccc(=O)[nH]c3=O)[C@H](O)[C@@H]2O)O[C@H](COS(=O)(=O)O)[C@@H](O)[C@@H]1O [Compound F17-12, Uridine 5′-diphospho-2-acetamido-2-deoxy-6-O-sulfo-α-D-glucopyranoside]		block the activities of both	did not serve as donor substrates
